{"source": "patent US4027024A", "about": "(priority 1972, dated 1977)", "key": {"[1]": {"tested_on": "rats", "experiment": "hot plate test on rats, analgesic effect (Tables 1 and 2)", "format": "in vivo", "method": "Examination of PROBON'S potentiating effect upon\nazidomorphine and azidocodeine, carried out on rats, by\nhot plate test, compared with Algopyrine. The compounds\nwere administered s.c. (subcutaneously).\nExamination of the potentiating effect of a few\nhomopyrimidazole derivatives upon axidomorphine or\nazidocodeine, carried out on rats, by Hot plate test, the\ncompounds were administered s.c."}, "[2]": {"tested_on": "rats", "experiment": "algolytic test, analgesia evaluated by pain score scale (Table A)", "format": "in vivo", "conditions": "for Pain units: pretr. time 1 hour, alone"}, "[3]": {"experiment": "modified hot plate test, duration of effect", "format": "in vivo", "conditions": "azidocodeine alone"}, "[4]": {"tested_on": "rats", "conditions": "rat, in vivo; for analgesic effect of the component per se (in words): sc"}, "[5]": {"tested_on": "rats", "conditions": "rat, in vivo"}}}
{"smiles": "Cc1c(N(C)CS(=O)(=O)O)c(=O)n(-c2ccccc2)n1C", "note": "[Algopyrin, 2,3-dimethyl-4-methylamino-1-phenyl-5-pyrazolon-N-methane-sulfonic acid, reference compound]", "values": [{"measurement": "Analgesic effect, Hot plate test", "setting": "[1]; 150 mg/kg s.c., alone", "value": 33, "unit": "%"}, {"measurement": "Analgesic effect, Hot plate test", "setting": "[1]; 200 mg/kg s.c., alone", "value": 49, "unit": "%"}, {"measurement": "Analgesic effect, Hot plate test", "setting": "[1]; AP 150 mg/kg s.c., AM --, AK dose left blank", "value": 29, "unit": "%"}, {"measurement": "analgesic potency relative to Probon (in words)", "setting": "[1]; Hot plate test, rats, s.c.", "value": "equipotent with Probon"}, {"measurement": "effect on analgesic effect of azidomorphine or azidocodeine (in words)", "setting": "[1]; Hot plate test, rats, s.c.", "value": "does not increase the analgesic effect"}]}
{"smiles": "COc1ccc2c3c1O[C@H]1[C@H](N=[N+]=[N-])CC[C@H]4[C@@H](C2)N(C)CC[C@@]341", "note": "[Azidocodeine]", "values": [{"measurement": "Pain units", "setting": "[2]; Azidocodeine 30 mg/kg p.o.", "value": 87, "unit": "Pain units"}, {"measurement": "Pain units", "setting": "[2]; Azidocodeine 45 mg/kg p.o.", "value": 38, "unit": "Pain units"}, {"measurement": "Pain units", "setting": "[2]; Azidocodeine 60 mg/kg p.o.", "value": 30, "unit": "Pain units"}, {"measurement": "ED50 in the algolytic test", "setting": "[2]; azidocodeine alone, from diagram plotted from Table A", "value": 32, "unit": "mg/kg"}, {"measurement": "duration of the effect", "setting": "[3]", "value": "2 to 2.5", "unit": "h"}, {"measurement": "Analgesic effect, Hot plate test", "setting": "[1]; AK 0.250 mg/kg s.c., alone", "value": 16, "unit": "%"}]}
{"smiles": "CN1CC[C@]23c4c5ccc(O)c4O[C@H]2[C@H](N=[N+]=[N-])CC[C@H]3[C@H]1C5", "note": "[Azidomorphine]", "values": [{"measurement": "Analgesic effect, Hot plate test", "setting": "[1]; AM 0.015 mg/kg s.c., alone", "value": 22, "unit": "%"}, {"measurement": "analgesic effect of the component per se (in words)", "setting": "[4]", "value": "ineffective"}]}
{"smiles": "CCOC(=O)c1cnc2n(c1=O)C(C)CCC2", "note": "(stereo not shown) [MZ-108, 3-carbethoxy-4-oxo-6-methyl-6,7,8,9-tetrahydro-homopyrimidazole]", "values": [{"measurement": "Analgesic effect, Hot plate test", "setting": "[1]; 200 mg/kg s.c., alone", "value": 18, "unit": "%"}, {"measurement": "Analgesic effect, algolytic test", "setting": "[4]", "value": 31, "unit": "%"}]}
{"smiles": "CCOC(=O)c1c[n+](C)c2n(c1=O)C(C)CCC2", "note": "(stereo not shown) [MZ-144, 1,6-dimethyl-3-carbethoxy-4-oxo-6,7,8,9-tetrahydro-homopyrimidazolium-methosulphate]", "values": [{"measurement": "Pain units", "setting": "[2]; MZ-144 300 mg/kg p.o.", "value": 75, "unit": "Pain units"}, {"measurement": "Analgesic effect, Hot plate test", "setting": "[1]; 50 mg/kg s.c., alone", "value": 38, "unit": "%"}, {"measurement": "Analgesic effect, algolytic test", "setting": "[4]", "value": 59, "unit": "%"}, {"measurement": "analgesic effect of the component per se (in words)", "setting": "[4]", "value": "ineffective"}, {"measurement": "Prolongation of narcotic period", "setting": "[5]", "value": 571, "unit": "%"}]}
{"smiles": "CCOC(=O)C1=CN(C)C2CCCC(C)N2C1=O", "note": "(stereo not shown) [MZ-168, 1,6-dimethyl-3-carbethoxy-4-oxo-1,6,7,8,9,10-hexahydro-homopyrimidazole]", "values": [{"measurement": "Analgesic effect, Hot plate test", "setting": "[1]; 50 mg/kg s.c., alone", "value": 23, "unit": "%"}]}
{"smiles": "CCOC(=O)C1CN(C)C2CCCC(C)N2C1=O", "note": "(stereo not shown) [MZ-170, 1,6-dimethyl-3-carbethoxy-4-oxo-1,2,3,6,7,8,9,10-octahydro-homopyrimidazole]", "values": [{"measurement": "Analgesic effect, Hot plate test", "setting": "[1]; 300 mg/kg s.c., alone", "value": 31, "unit": "%"}]}
{"smiles": "CC1CCCc2n1c(=O)c(C(=O)[O-])c[n+]2C", "note": "(stereo not shown) [MZ-211, 1,6-dimethyl-4-oxo-6,7,8,9-tetrahydro-homopyrimidazole-3-carboxylic acid]", "values": [{"measurement": "Analgesic effect, Hot plate test", "setting": "[1]; 50 mg/kg s.c., alone", "value": 38, "unit": "%"}, {"measurement": "Analgesic effect, algolytic test", "setting": "[4]", "value": 15, "unit": "%"}]}
{"smiles": "O=C(CCCN1CCC(O)(c2ccc(Cl)cc2)CC1)c1ccc(F)cc1", "note": "[haloperidol, reference compound]", "values": [{"measurement": "Prolongation of narcotic period", "setting": "[5]", "value": 255, "unit": "%"}]}
